Results reported in the supplement of paper PMC10883282.
± gives the standard deviation of the averaged measurements.

Assays:
Assay in all cases: relative viability vs DMSO control (72 h) (fraction); higher = more viable cells
HS729 = tested on: HS729
Summary of the method: (§1)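 Densities for seeding sarcoma cell lines into 384-well plates were set to give 80–90% confluence. After 24 h, 2.5 µl of serially diluted compound from source plates of 10 mM to 0.0002 mM went in, and plates stayed 72 h at 37 °C in 5% CO2 with 0.1% DMSO vehicle and a 5 µM positive control. Percent growth from ATPLite readings, averaged over up to triplicate wells, served as relative viability, rescaled so 1 means full and 0 means none.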

SK-ES-1 = tested on: SK-ES-1
Summary of the method: as §1

A204 = tested on: A204
Summary of the method: as §1

SYO-1 = tested on: SYO-1
Summary of the method: as §1

RD = tested on: RD
Summary of the method: as §1

KHOS-NP = tested on: KHOS-NP
Summary of the method: as §1

Cc1cc2cc(Oc3ccnc(Nc4cccc(CS(=O)(=O)NCCN(C)C)c4)n3)ccc2[nH]1 [Sulfatinib]
relative viability
Details | A204 | HS729 | KHOS-NP | RD | SK-ES-1 | SYO-1
0.00017 µM | 1.09 ± 0.063 | 0.983 ± 0.1 | 1.05 ± 0.016 | 1.074 ± 0.0065 | 1.03 ± 0.072 | 0.943 ± 0.05
0.00051 µM | 1.08 ± 0.022 | 0.993 ± 0.11 | 1.05 ± 0.011 | 1.09 ± 0.013 | 1.03 ± 0.082 | 0.962 ± 0.079
0.00152 µM | 1.08 ± 0.049 | 0.979 ± 0.11 | 1.03 ± 0.015 | 1.09 ± 0.02 | 1.01 ± 0.032 | 0.945 ± 0.066
0.00457 µM | 1.05 ± 0.091 | 0.9 ± 0.052 | 1.006 ± 0.0082 | 1.123 ± 0.0062 | 1.03 ± 0.062 | 0.938 ± 0.059
0.01372 µM | 1.07 ± 0.049 | 0.939 ± 0.11 | 1.03 ± 0.021 | 1.1 ± 0.046 | 1.03 ± 0.044 | 0.9 ± 0.061
0.04115 µM | 1.02 ± 0.075 | 0.872 ± 0.058 | 1.019 ± 0.01 | 1.094 ± 0.0055 | 1.05 ± 0.03 | 0.865 ± 0.045
0.1235 µM | 1.01 ± 0.03 | 0.877 ± 0.081 | 1.04 ± 0.012 | 1.12 ± 0.039 | 1.03 ± 0.071 | 0.805 ± 0.026
0.3704 µM | 0.878 ± 0.02 | 0.843 ± 0.058 | 1.026 ± 0.0075 | 1.09 ± 0.047 | 1.03 ± 0.017 | 0.607 ± 0.054
1.111 µM | 0.536 ± 0.04 | 0.768 ± 0.019 | 1.01 ± 0.023 | 1.07 ± 0.038 | 1 ± 0.039 | 0.423 ± 0.037
3.333 µM | 0.283 ± 0.031 | 0.629 ± 0.018 | 1.01 ± 0.033 | 0.981 ± 0.11 | 0.859 ± 0.057 | 0.341 ± 0.021
10 µM | 0.136 ± 0.016 | 0.49 ± 0.014 | 0.963 ± 0.037 | 0.456 ± 0.029 | 0.455 ± 0.021 | 0.105 ± 0.02
